XC50 data for 86 compounds are collected here from ChEMBL document CHEMBL1157539, “Thousands of chemical starting points for antimalarial lead identification” (Nature, 2010).

For the assay, the system named is Plasmodium falciparum. Kind of assay: GSK_TCMDC: Inhibition of Plasmodium falciparum 3D7 in whole erythrocytes, using parasite LDH activity as an index of growth. Type of assay: functional, organism-based. The note with it: Plasmodium falciparum, 3D7.
Compound `Cc1ccc2c(N/N=C/c3cccc([N+](=O)[O-])c3)cc(C)nc2c1` yielded an XC50 of 272 nM.

The compound `CS(=O)(=O)c1ccc(-c2cnc(N)c(-c3ccc(O)cc3)c2)cc1` showed an XC50 of 1360 nM.

In turn, `COc1ccc(-n2ccnc2SCC(=O)Nc2cc(C)ccc2C)c(OC)c1` gave an XC50 of 205 nM.

As for `COc1cccc(Nc2nc(Nc3cccc(C#N)c3)cc(-c3ccncc3)n2)c1`, the XC50 was determined as 764 nM.

Take `COc1ccc(NC(=O)CCNc2cc(C)nc(Nc3ccccc3)n2)cc1`: the XC50 turned out to be 1100 nM.

In turn, `O=C(CNC(=O)c1ccc(O)cc1)Nc1ccc(-c2cccc(-c3nc4cc(C(F)(F)F)ccc4[nH]3)c2)cc1` displayed an XC50 of 859 nM.

Compound `CCN(C(=O)c1ccc(NC(=O)c2cccs2)cc1)c1nc2c(C)cccc2s1` registered an XC50 of 850 nM.

For the compound `Cc1cccc2nc(-c3cccc(-c4cccc(NC(=O)C5CC(=O)Nc6ccccc65)c4)c3)[nH]c12` (stereo unspecified), the XC50 was 64.6 nM.

Take `NCc1cccc(-c2cccc(CNC3CCN(Cc4ccccc4)CC3)c2)c1`: the XC50 is 719 nM.

In the case of `O=C(NC1CCN(CCc2c[nH]c3ccc(F)cc23)CC1)c1ncc(-c2ccccc2)[nH]1`, the XC50 came to 868 nM.

`COc1cccc(C2(C)CCN(CCCCNC(=O)c3ccc(NC(=O)c4ccc(Cl)cc4)cc3)CC2)c1` had an XC50 of 831 nM.

In the case of `O=C(Oc1ccc(C2CNCCc3c2cc(OC(=O)c2ccc(O)cc2)c(OC(=O)c2ccc(O)cc2)c3Cl)cc1)c1ccc(O)cc1` (stereo unspecified), the XC50 came to 983 nM.

In turn, `Cc1cc(C2CCN(CCCCNC(=O)c3ccc(NC(=O)c4ccc(Cl)cc4)cc3)CC2)c(C)cc1OCc1ccccn1` returned an XC50 of 801 nM.

Regarding `CCOC(=O)c1cc(Cl)ccc1OCCCON1C(=N)N=C(N)NC1(C)C`, the XC50 came out at 3.2 nM.

Regarding `O=C1C([N+](=O)[O-])=C(O)c2c(F)cccc21`, the XC50 worked out at 149 nM.

For `COCn1ncc2cc(-c3cccc(NC(=O)c4csc(NC(C)=O)n4)c3)ccc21`, the XC50 was found to be 987 nM.

In turn, `Clc1ccc(OCc2ccccc2)c(Cc2ccc(-c3nc4cnccc4[nH]3)o2)c1` displayed an XC50 of 754 nM.

In turn, `Cc1ccc(CNC(=O)[C@H](Cc2ccccc2)Nc2ccnc(NCC3CCCCC3)n2)cc1` came in with an XC50 of 1190 nM.

`O=C(/C=C/c1ccc(Cl)c(Cl)c1)NCCCCCN1CCC(NC(=O)Nc2ccc(C(F)(F)F)cc2)C1` (stereo unspecified): the XC50 was 513 nM.

Regarding `O=[N+]([O-])c1ccc(-n2nc(-c3cccnc3)n(Cc3ccco3)c2=S)c(Cl)c1`, the XC50 worked out at 200 nM.

Compound `CC(=O)Nc1ccc(CNC2Cc3ccc(-c4ccc(Cl)c(Cl)c4)cc3C2)cc1` (stereo unspecified) displayed an XC50 of 998 nM.

The compound `CC(C)Cc1cnc2nc(N)nc(N)c2c1` registered an XC50 of 491 nM.

On to `COc1cc2nc(N(C)Cc3cccc(I)c3)nc(N)c2cc1OC`, for which the XC50 was determined as 863 nM.

Compound `COc1cccc(C2CCCN(CCCCNC(=O)c3ccc(NC(=O)c4ccc(Cl)cc4)cc3)C2)c1` (stereo unspecified) returned an XC50 of 864 nM.

In turn, `CC1(C)NC(N)=NC(=N)N1OCCCOc1c(Cl)cc(Cl)cc1Cl` showed an XC50 of 2.94 nM.

`CCCCCCC(C)(C)c1cc(O)c2c(c1)OC(C)(C)c1ccncc1-2` returned an XC50 of 178 nM.

In the case of `CC(C)C[C@H](NC(=O)c1ccc(OCCN2CCOCC2)cc1)C(=O)N[C@H](/C=N/N1CCNC1=O)CCc1ccccc1`, the XC50 is 365 nM.

Take `Cc1cc2[nH]c(-c3ccc(C(=O)NCCCN4CCN(c5cccc(Cl)c5)CC4)cc3F)nc2cc1Cl`: the XC50 amounted to 479 nM.

Compound `CCc1ccc(C2CCN(CCCCNC(=O)c3ccc(NC(=O)c4ccc(Cl)cc4)cc3)CC2)c(OC)c1` showed an XC50 of 785 nM.

`O=C(/C=C/c1ccc(Cl)c(Cl)c1)NCCCCCCN1CCN(C(=O)Nc2cc(F)cc(F)c2)CC1`: the XC50 was determined as 1070 nM.

Compound `CC(C)(C)OC(=O)N[C@@H](CS(=O)(=O)CCNC(=N)COCc1ccccc1)C(=O)OC(C)(C)C` gave an XC50 of 821 nM.

For the compound `c1ccc2c(NCCCCCCNc3ccnc4ccccc34)ccnc2c1`, the XC50 came to 191 nM.

`COc1ccc(Nc2nc(NCc3ccc(-n4ccnc4)cc3)cc(-c3ccc(OC)cc3)n2)cc1` showed an XC50 of 827 nM.

For the compound `Cn1cc(C2CCN(CCCCNC(=O)c3sc(-c4ccc(C(F)(F)F)cc4)nc3CO)CC2)c2ccccc21`, the XC50 came to 1060 nM.

On to `CC1(C)C=C(c2ccncc2)c2cc(Cl)ccc2O1`, for which the XC50 worked out at 430 nM.

Turning to `N=C(N)c1ccc(Oc2ccc(C(=N)N)cc2)cc1`, the XC50 is 317 nM.

`O=c1nc2[nH]c3ccccc3n2c(=O)[nH]1` had an XC50 of 174 nM.

As for `CC(C)(C)c1ccc(CN2CCC(NC(=O)c3cc(-c4cccc(C(F)(F)F)c4)cs3)C2)cc1` (stereo unspecified), the XC50 came to 805 nM.

Take `Cc1cccc2nc(-c3ccc(-c4cccc(CN5CCN(c6ccc(C#N)cn6)CC5)c4)s3)[nH]c12`: the XC50 came to 1420 nM.

As for `Cn1nc(-c2ccc(NC(=O)Nc3cc(C(F)(F)F)ccc3F)cc2)c2cnc(NCCc3c[nH]cn3)nc21`, the XC50 amounted to 813 nM.

In the case of `CC[C@H]1CN2CCc3cc(OC)c(OC)cc3[C@@H]2C[C@@H]1C[C@H]1NCCc2c1cc(OC)c(O)c2I`, the XC50 was found to be 216 nM.

The compound `Nc1nc2c(ncn2OC[C@H](CO)OCP(=O)(O)O)c(=O)[nH]1` gave an XC50 of 341 nM.

In turn, `CC(C)NCc1ccc(-c2cccc(CN3CCC(c4ccccc4)CC3)c2)c(C(=O)NCC2CCCCC2)c1` gave an XC50 of 847 nM.

For the compound `NC1CCN(Cc2ccc(-c3cccc(-c4nc5ccccc5[nH]4)c3)cc2)C1` (stereo unspecified), the XC50 amounted to 849 nM.

Take `OCCN1CCN(Cc2cccc(-c3cccc(-c4nc5cc(F)ccc5[nH]4)c3)c2)CC1`: the XC50 worked out at 706 nM.

For the compound `Oc1ccc2[nH]cc(C3=CCN(CCc4ccccc4)CC3)c2c1`, the XC50 worked out at 313 nM.

Regarding `CC(C)(C)c1cc2cc(Nc3ccnc4cc(-c5nccs5)ccc34)ccc2[nH]1`, the XC50 is 441 nM.

For `CCOC(=O)C(C(C)=O)C(c1ccccc1)C(C(C)=O)C(=O)OCC` (stereo unspecified), the XC50 was 748 nM.

For the compound `COc1ccc2c(c1)ncn2-c1cc(OCc2ccncc2Br)c(C(N)=O)s1`, the XC50 was found to be 609 nM.

Take `CCCCc1ccc(CCNCCCCCCNCCc2ccc(O)c(O)c2)cc1`: the XC50 was determined as 1070 nM.

Take `C/C=C1/CN2CC[C@H]1C[C@H]2[C@H](O)c1ccnc2ccc(O)cc12`: the XC50 is 491 nM.

Compound `COc1cc(C(=O)N2CCOC(CCN3CCc4c(c5ccccc5n4C)C3)(c3ccc(Cl)c(Cl)c3)C2)cc(OC)c1OC` (stereo unspecified) registered an XC50 of 357 nM.

Compound `Cc1ccc(C(=O)NC2CC2)cc1-c1ccc2c(cnn2S(=O)(=O)c2ccc(F)cc2)c1` registered an XC50 of 289 nM.

In turn, `O=C(NC1CC1)c1ccc(Cn2c(SCc3cccc(Cl)c3)nc3ccccc3c2=O)cc1` yielded an XC50 of 422 nM.

Regarding `O=C(Nc1cccc(N2CCC(NCc3cnn(-c4cccc(F)c4)c3)CC2)c1)c1ccncc1`, the XC50 turned out to be 1390 nM.

Consider `CC1CN(Cc2ccc(-c3ccc(-c4nc5cc(F)ccc5[nH]4)s3)cc2)CC(C)O1` (stereo unspecified), for which the XC50 is 876 nM.

Take `CN(CCN1CCCC1)c1nc2cc(-n3cnc4cc(-c5ccc(Cl)cc5)sc4c3=O)ccc2[nH]1`: the XC50 turned out to be 824 nM.

`Nc1nc(N)c2c(Cc3ccc(Br)cc3)cccc2n1` displayed an XC50 of 775 nM.

For the compound `CCNc1cc(C)nc(Nc2ccc(NC(=O)c3ccco3)cc2)n1`, the XC50 is 1090 nM.

Compound `O=C(NC(=O)c1ccccc1O)c1ccccc1O` had an XC50 of 704 nM.

Compound `COc1ccc2nccc([C@@H](O)CN3CCC(NC(=O)Cc4ccc(Br)c5ccccc45)CC3)c2c1` gave an XC50 of 820 nM.

The compound `COc1cccc2cc(C(=O)N[C@@H](CC(C)C)C(=O)N[C@H](C=NN3CC(=O)NC3=O)CC(C)C)oc12` gave an XC50 of 920 nM.

For `NC1=NC(c2ccccc2)(c2ccccc2)C(=O)N1C1CCCCC1`, the XC50 is 661 nM.

`CC(C)C1=C[C@H]2C[C@]3(C4OCCO4)[C@@H]4CC[C@@H](C)[C@H]4C[C@@]2(C(=O)OCC2COCO2)[C@]13C(=O)OC(c1ccccc1)c1ccccc1` (stereo partly specified): the XC50 came to 855 nM.

Consider `O=C(Cc1cccnc1)N(Cc1ccc(-c2ccc(CNCc3cccnc3)cn2)cc1)C1CCN(Cc2ccccc2)CC1`, for which the XC50 was 803 nM.

With `CCOC(=O)[C@H](Cc1cccc2ccccc12)NC(=O)[C@H](CCC(=O)OC(C)(C)C)NC(=O)c1ccc(N(C)Cc2cnc3nc(N)nc(N)c3n2)cc1`, the XC50 amounted to 663 nM.

The compound `Cc1ccc(C)c(Cn2ccc3nc(N)nc(N)c32)c1` showed an XC50 of 301 nM.

Compound `Cc1[nH]c2cc(Cl)ccc2c1C1=CCN(CCN2CCOc3c(Br)cccc3C2=O)CC1` displayed an XC50 of 873 nM.

With `Nc1nc(N)c2c(Cl)c(N(Cc3ccccc3)Cc3ccccc3)ccc2n1`, the XC50 was found to be 192 nM.

Take `Cc1cccc(Cn2c(C(N)=O)nn(-c3ccc([N+](=O)[O-])cc3C#N)c2=S)c1`: the XC50 is 731 nM.

Turning to `Cc1cc(C(=O)N[C@H]2CCN(Cc3ccc(OCCCN(C)C)cc3)C2)ccc1Br`, the XC50 turned out to be 898 nM.

`O=c1cc(NCCCNCc2cc(Br)ccc2F)[nH]c2ccccc12` registered an XC50 of 854 nM.

`Cc1[nH]c(C)c(-c2ccc(-c3ccc(Cl)cc3)nc2)c(=O)c1Cl` came in with an XC50 of 106 nM.

`Cc1cccc2nc(-c3ccc(-c4ccc(NC(=O)NCc5cccc(F)c5)cc4)s3)[nH]c12` had an XC50 of 887 nM.

The compound `Nc1nc(N)c2c(ccc3ccccc32)n1` showed an XC50 of 749 nM.

As to `CC1CCN(CCNC(=O)c2ccc3c(=O)n(Cc4ccc(Cl)cc4)c(=S)[nH]c3c2)CC1`, the XC50 came to 704 nM.

For `Cc1[nH]cnc1-c1cccc(NC(=O)c2cc3ccccc3s2)c1`, the XC50 is 210 nM.

Compound `COc1ccc(C2CC(=O)C3=C(C2)NC(C)=C(C(=O)OC2CCCC2)C3c2cccc(O)c2)cc1` (stereo unspecified) registered an XC50 of 1010 nM.

`O=C(Nc1cccnc1)c1cc(-c2cccnc2)nc2ccc(Br)cc12` showed an XC50 of 640 nM.

As to `Oc1ccc(CN2CCC(NCc3cccc(C(F)(F)F)c3)CC2)cc1`, the XC50 was 685 nM.

Take `N#Cc1cccc(C(=O)N2CCOC(CCN3CCC(c4ccccc4)CC3)(c3ccc(Cl)c(Cl)c3)C2)c1` (stereo unspecified): the XC50 was 1040 nM.

Regarding `O=c1cc(NCCCNCc2ccc(Cl)c(Cl)c2)[nH]c2ccc(Oc3ccccc3)cc12`, the XC50 worked out at 850 nM.

`Cc1nc(-c2nc(NCc3ccc4c(c3)OCO4)ncc2-c2ccsc2)sc1C` displayed an XC50 of 103 nM.

Compound `O=c1ccc2ccc(F)cc2n1CCN1CCC(NCc2ccc(-c3ccccn3)s2)CC1` had an XC50 of 887 nM.

`CCOC(=O)N(C)/N=C/[C@H](CCc1ccccc1)NC(=O)[C@H](CC(C)C)NC(=O)c1cc2cccc(OC)c2o1` came in with an XC50 of 556 nM.

The compound `Cc1nc(Nc2ccc(F)cc2)nc(N2CCc3cc(O)ccc3C2C)c1C` (stereo unspecified) came in with an XC50 of 754 nM.
